# Measured values as given in US12018021B2 (UCB Biopharma SRL, priority 2018, dated 2024).
# Molecular target: IgE-Tb / FcεRIα-Y131A-AF488 (Homo sapiens, UniProt P01854)
# Assay: IgE-Tb / FcεRIα-Y131A-AF488 FRET assay (protocol for examples 1 to 233)
# Type: binding
# Settings: examples 1 to 233: 5 nM IgE-Tb, 25 nM FcεRIα-Y131A-AF488, incubated 2 hours at room temperature; read-out: Y131A FRET IC50 range
# Outline: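 TR-FRET displacement with 5 nM IgE-Tb and 25 nM FcεRIα-Y131A-AF488 (final), 10-point 3-fold compound dilutions from typically 10 μM top, 2% DMSO, 2 h at room temperature. Excitation 330 nm, 520/495 nm emission ratio; MIN set with 200 nM unlabelled FcεRIα. IC50 from four-parameter logistic fit of percent inhibition.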
# IgE-Tb / FcεRIα-Y131A-AF488, sequence (P01854 1-427 limits assumed, stated change not applied): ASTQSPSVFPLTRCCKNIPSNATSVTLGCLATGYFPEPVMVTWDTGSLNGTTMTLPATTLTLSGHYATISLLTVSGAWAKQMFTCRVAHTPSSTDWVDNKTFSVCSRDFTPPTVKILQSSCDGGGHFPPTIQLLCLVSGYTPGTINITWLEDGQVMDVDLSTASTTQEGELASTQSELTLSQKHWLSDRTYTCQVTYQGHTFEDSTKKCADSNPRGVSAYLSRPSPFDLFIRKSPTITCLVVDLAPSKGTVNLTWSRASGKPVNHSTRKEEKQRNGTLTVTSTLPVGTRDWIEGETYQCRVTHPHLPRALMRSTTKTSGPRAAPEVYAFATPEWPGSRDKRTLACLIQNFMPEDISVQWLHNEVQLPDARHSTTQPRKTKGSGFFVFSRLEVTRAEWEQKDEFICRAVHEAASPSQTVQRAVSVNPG
row,SMILES,IC50
1,"Cc1ccc(NC2=NS(=O)(=O)N=C2NC2CCc3sc(NC(=O)C4CC4)c(C(=O)NCC4CC4)c3C2)cc1 (centres unmarked) [Example 169, 2-(Cyclopropanecarbonylamino)-N-(cyclopropylmethyl)-5-[[4-(4-methylanilino)-1,1-dioxo-1,2,5-thiadiazol-3-yl]amino]-4,5,6,7-tetrahydrobenzothiophene-3-carboxamide]",< 1 µM
2,"O=C(NCC1CC1)c1c(NC(=O)C2CC2)sc2c1C[C@@H](Nc1nccn1-c1cccnc1)CC2 [Example 170, (5S)-2-(Cyclopropanecarbonylamino)-N-(cyclopropylmethyl)-5-[[1-(3-pyridyl)imidazol-2-yl]amino]-4,5,6,7-tetrahydrobenzothiophene-3-carboxamide]",1 to 10 µM
3,"Nc1cnnn1C1CCc2sc(NC(=O)C3CC3)c(C(=O)NCC3CC3)c2C1 (centres unmarked) [Example 171, 5-(5-Aminotriazol-1-yl)-2-(cyclopropanecarbonylamino)-N-(cyclopropylmethyl)-4,5,6,7-tetrahydrobenzothiophene-3-carboxamide]",< 1 µM
4,"COc1ccccc1NC(=O)NC1CCc2sc(NC(=O)C3CC3)c(C(=O)NCC3CC3)c2C1 (centres unmarked) [Example 172, 2-(Cyclopropanecarbonylamino)-N-(cyclopropylmethyl)-5-[(2-methoxyphenyl)carbamoylamino]-4,5,6,7-tetrahydrobenzothiophene-3-carboxamide]",< 1 µM
5,"O=C(NC1CCc2sc(NC(=O)C3CC3)c(C(=O)NCC3CC3)c2C1)c1ccncc1 (centres unmarked) [Example 173, N-[2-(Cyclopropanecarbonylamino)-3-(cyclopropylmethylcarbamoyl)-4,5,6,7-tetrahydrobenzothiophen-5-yl]pyridine-4-carboxamide]",1 to 10 µM
6,"O=C(NCC1CC1)c1c(NC(=O)C2CC2)sc2c1CC(NCc1ccccc1)CC2 (centres unmarked) [Example 174, 5-(Benzylamino)-2-(cyclopropanecarbonylamino)-N-(cyclopropylmethyl)-4,5,6,7-tetrahydrobenzothiophene-3-carboxamide]",10 to 50 µM
7,"O=C(NCC1CC1)c1c(NC(=O)C2CC2)sc2c1CC(Nc1nc3ccccc3[nH]1)CC2 (centres unmarked) [Example 175, 5-(1H-Benzimidazol-2-ylamino)-2-(cyclopropanecarbonylamino)-N-(cyclopropylmethyl)-4,5,6,7-tetrahydrobenzothiophene-3-carboxamide]",< 1 µM
8,"NC(=NO)NC1CCc2sc(NC(=O)C3CC3)c(C(=O)NCC3CC3)c2C1 (centres unmarked) [Example 176, 2-(Cyclopropanecarbonylamino)-N-(cyclopropylmethyl)-5-[[N′-hydroxycarbamimidoyl]amino]-4,5,6,7-tetrahydrobenzothiophene-3-carboxamide]",< 1 µM
9,"Cc1ccc(NC(=Nc2ccn(C)n2)NC2CCc3sc(NC(=O)C4CC4)c(C(=O)NCC4CC4)c3C2)cc1 (centres unmarked) [Example 177, 2-(Cyclopropanecarbonylamino)-N-(cyclopropylmethyl)-5-[[N′-(1-methylpyrazol-3-yl)-N-(p-tolyl)carbamimidoyl]amino]-4,5,6,7-tetrahydrobenzothiophene-3-carboxamide; formic acid]",1 to 10 µM
10,"CCNc1nnc(COC)n1C1CCc2sc(NC(=O)C3CC3)c(C(=O)NCC3CC3)c2C1 (centres unmarked) [Example 179, 2-(Cyclopropanecarbonylamino)-N-(cyclopropylmethyl)-5-[3-(ethylamino)-5-(methoxymethyl)-1,2,4-triazol-4-yl]-4,5,6,7-tetrahydrobenzothiophene-3-carboxamide]",1 to 10 µM
11,"O=C(NCC1CC1)c1c(NC(=O)C2CC2)sc2c1CC(Nc1n[nH]c(-c3cccnc3)n1)CC2 (centres unmarked) [Example 180, 2-(Cyclopropanecarbonylamino)-N-(cyclopropylmethyl)-5-[[5-(3-pyridyl)-1H-1,2,4-triazol-3-yl]amino]-4,5,6,7-tetrahydrobenzothiophene-3-carboxamide]",< 1 µM
12,"Cc1ccc(OC(=O)NC2CCc3sc(NC(=O)C4CC4)c(C(=O)NCC4CC4)c3C2)cc1 (centres unmarked) [Example 181, p-Tolyl N-[2-(cyclopropanecarbonylamino)-3-(cyclopropylmethylcarbamoyl)-4,5,6,7-tetrahydrobenzothiophen-5-yl]carbamate]",< 1 µM
13,"O=C(NCC1CC1)c1c(NC(=O)C2CC2)sc2c1CC(Nc1ncc3ccccc3n1)CC2 (centres unmarked) [Example 182, 2-(Cyclopropanecarbonylamino)-N-(cyclopropylmethyl)-5-(quinazolin-2-ylamino)-4,5,6,7-tetrahydrobenzothiophene-3-carboxamide]",< 1 µM
14,"O=C(NCC1CC1)c1c(NC(=O)C2CC2)sc2c1CC(Nc1nc3ccccc3o1)CC2 (centres unmarked) [Example 183, 5-(1,3-Benzoxazol-2-ylamino)-2-(cyclopropanecarbonylamino)-N-(cyclopropylmethyl)-4,5,6,7-tetrahydrobenzothiophene-3-carboxamide]",< 1 µM
15,"CCNc1nnc(CO)n1C1CCc2sc(NC(=O)C3CC3)c(C(=O)NCC3CC3)c2C1 (centres unmarked) [Example 184, 2-(Cyclopropanecarbonylamino)-N-(cyclopropylmethyl)-5-[3-(ethylamino)-5-(hydroxymethyl)-1,2,4-triazol-4-yl]-4,5,6,7-tetrahydrobenzothiophene-3-carboxamide]",< 1 µM
16,"Cc1cc(Nc2nncn2C2CCc3sc(NC(=O)C4CC4)c(C(=O)NC4CC(F)(F)C4)c3C2)n(C)n1 (centres unmarked) [Example 185, 2-(cyclopropanecarbonylamino)-N-(3,3-difluorocyclobutyl)-5-[3-[(2,5-dimethylpyrazol-3-yl)amino]-1,2,4-triazol-4-yl]-4,5,6,7-tetrahydrobenzothiophene-3-carboxamide]",< 1 µM
17,"Nc1nccn1[C@H]1CCc2sc(NC(=O)C3CC3)c(C(=O)NCC3CC3)c2C1 [Example 186, (5S)-5-(2-Aminoimidazol-1-yl)-2-(cyclopropanecarbonylamino)-N-(cyclopropylmethyl)-4,5,6,7-tetrahydrobenzothiophene-3-carboxamide]",< 1 µM
18,"Nc1noc(=O)n1C1CCc2sc(NC(=O)C3CC3)c(C(=O)NCC3CC3)c2C1 (centres unmarked) [Example 187, 5-(3-Amino-5-oxo-1,2,4-oxadiazol-4-yl)-2-(cyclopropanecarbonylamino)-N-(cyclopropylmethyl)-4,5,6,7-tetrahydrobenzothiophene-3-carboxamide]",< 1 µM
19,"CCNc1nnc(C)n1C1CCc2sc(NC(=O)C3CC3)c(C(=O)NCC3CC3)c2C1 (centres unmarked) [Example 188, 2-(Cyclopropanecarbonylamino)-N-(cyclopropylmethyl)-5-[3-(ethylamino)-5-methyl-1,2,4-triazol-4-yl]-4,5,6,7-tetrahydrobenzothiophene-3-carboxamide]",< 1 µM
20,"O=C(NCC1CC1)c1c(NC(=O)C2CC2)sc2c1CC(Nc1ncccn1)CC2 (centres unmarked) [Example 191, 2-(Cyclopropanecarbonylamino)-N-(cyclopropylmethyl)-5-(pyrimidin-2-ylamino)-4,5,6,7-tetrahydrobenzothiophene-3-carboxamide]",< 1 µM
21,"O=C(NCC1CC1)c1c(NC(=O)C2CC2)sc2c1CC(Nc1nnco1)CC2 (centres unmarked) [Example 192, 2-(Cyclopropanecarbonylamino)-N-(cyclopropylmethyl)-5-(1,3,4-oxadiazol-2-ylamino)-4,5,6,7-tetrahydrobenzothiophene-3-carboxamide]",< 1 µM
22,"Cc1cc(Nc2nncn2C2CCc3sc(NC(=O)C4CC4)c(C(=O)NC4CC(F)C4)c3C2)n(C)n1 (centres unmarked) [Example 193, 2-(cyclopropanecarbonylamino)-5-[3-[(2,5-dimethylpyrazol-3-yl)amino]-1,2,4-triazol-4-yl]-N-(3-fluorocyclobutyl)-4,5,6,7-tetrahydrobenzothiophene-3-carboxamide]",< 1 µM
23,"Cc1ccc(N2C(=O)CN=C2NC2CCc3sc(NC(=O)C4CC4)c(C(=O)NCC4CC4)c3C2)cc1 (centres unmarked) [Example 194, 2-(Cyclopropanecarbonylamino)-N-(cyclopropylmethyl)-5-[[5-oxo-1-(p-tolyl)-4H-imidazol-2-yl]amino]-4,5,6,7-tetrahydrobenzothiophene-3-carboxamide]",1 to 10 µM
24,"CCN(C)c1c(NC2CCc3sc(NC(=O)C4CC4)c(C(=O)NCC4CC4)c3C2)c(=O)c1=O (centres unmarked) [Example 195, 2-(Cyclopropanecarbonylamino)-N-(cyclopropylmethyl)-5-[[2-[ethyl(methyl)amino]-3,4-dioxo-cyclobuten-1-yl]amino]-4,5,6,7-tetrahydrobenzothiophene-3-carboxamide]",< 1 µM
25,"CS(=N)(=O)NC1CCc2sc(NC(=O)C3CC3)c(C(=O)NCC3CC3)c2C1 (centres unmarked) [Example 196, 2-(Cyclopropanecarbonylamino)-N-(cyclopropylmethyl)-5-[(methylsulfonimidoyl)amino]-4,5,6,7-tetrahydrobenzothiophene-3-carboxamide]",1 to 10 µM
26,"CC(=NC#N)NC1CCc2sc(NC(=O)C3CC3)c(C(=O)NCC3CC3)c2C1 (centres unmarked) [Example 197, 5-[[N-Cyano-C-methyl-carbonimidoyl]amino]-2-(cyclopropanecarbonylamino)-N-(cyclopropylmethyl)-4,5,6,7-tetrahydrobenzothiophene-3-carboxamide]",< 1 µM
27,"O=C(NCC1CC1)c1c(NC(=O)C2CC2)sc2c1CC(n1cnnn1)CC2 (centres unmarked) [Example 198, 2-(Cyclopropanecarbonylamino)-N-(cyclopropylmethyl)-5-(tetrazol-1-yl)-4,5,6,7-tetrahydrobenzothiophene-3-carboxamide]",< 1 µM
28,"Cc1cc(Nc2nncn2C2CCc3sc(NC(=O)C4CC4)c(C(=O)NCC(C)(C)F)c3C2)n(C)n1 (centres unmarked) [Example 200, 2-(cyclopropanecarbonylamino)-5-[3-[(2,5-dimethylpyrazol-3-yl)amino]-1,2,4-triazol-4-yl]-N-(2-fluoro-2-methyl-propyl)-4,5,6,7-tetrahydrobenzothiophene-3-carboxamide]",< 1 µM
29,"O=C(NCC1CC1)c1c(NC(=O)C2CC2)sc2c1CC(N1CCOCC1)CC2 (centres unmarked) [Example 201, 2-(Cyclopropanecarbonylamino)-N-(cyclopropylmethyl)-5-morpholino-4,5,6,7-tetrahydrobenzothiophene-3-carboxamide]",1 to 10 µM
